In patent publication US11071731B2, “Allosteric modulators of the mu opioid receptor” (Chiromics, LLC, priority 2017, dated 2021):
Where two headings read alike, the source gives them in different places.

Tests used:
Sprague-Dawley rats [1] = assay: Gastrointestinal transit of charcoal bolus and stomach contents; details: morphine 10 mg/kg, compound 9 15, 30, 60 mg/kg
Sprague-Dawley rats [2] = assay: Respiratory depression: blood oxygen saturation by pulse oximetry; type: in vivo; details: subcutaneous; morphine 10 mg/kg, compound 9 15, 30, 60 mg/kg; 90 minutes
Method: Respiratory depression is a significant side effect associated with opioid treatment of acute and chronic pain. Drug-related overdose deaths are often a function of the respiratory depression which occurs with opioid use. Efforts to generate analgesics that dissociate pain relief from side effects are critical to the advancement of public health. […] […].
Blood oxygen saturation was assessed in awake rats with the MouseOx oximeter system (Starr Life Sciences, Holliston, Mass.). Up to 5 samples were measured every 5 minutes for 15 minutes prior to dosing and 90 minutes after dosing. Each animal was habituated to the device over several days prior to the study.

MOR [3] = molecular target: T1, MOR (Homo sapiens, UniProt P35372); type: cell-based; details: β-arrestin; EC20 EM2 agonism of MOR
mu opioid receptor (MOR) [4] = molecular target: T2, mu opioid receptor (MOR) (Homo sapiens, UniProt P35372); assay: PathHunter β-arrestin recruitment assay, PAM mode with EC20 endomorphin-1; type: cell-based; details: for allosteric activity for β-arrestin recruitment: EC20 endomorphin-1 concentration of 4.5 nM
Outline: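 β-Arrestin recruitment to the receptor was tracked by chemiluminescent β-galactosidase activity from complementing fragments (ED on receptor, EA on β-arrestin). Per-compound outputs were EC50 and percent maximal response.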

mu opioid receptor (MOR) [5] = molecular target: T2, mu opioid receptor (MOR); assay: Hit Hunter cAMP signaling assay (adenylyl cyclase inhibition), PAM mode with EC20 endomorphin-1; type: cell-based; details: for allosteric activity for cAMP signaling: EC20 endomorphin-1 concentration of 0.45 nM; for Max. Response: cAMP
MOR [6] = molecular target: T1, MOR; assay: cell-based; details: EC20 Oxycodone agonism of MOR; for EC50: RC50, β-arrestin; for Max. Response: β-arrestin
MOR [7] = molecular target: T1, MOR; assay: cell-based; details: EC20 morphine agonism of MOR; for EC50: RC50, cAMP; for Max. Response: cAMP
MOR [8] = molecular target: T1, MOR; assay: cell-based; details: EC20 Oxycodone agonism of MOR; for EC50: RC50, cAMP; for Max. Response: cAMP
MOR [9] = molecular target: T1, MOR; type: cell-based; details: cAMP; EC20 EM2 agonism of MOR
MOR [10] = molecular target: T1, MOR; assay: cell-based; details: EC20 morphine agonism of MOR; for EC50: RC50, β-arrestin; for Max. Response: β-arrestin
MOR [11] = molecular target: T1, MOR; type: cell-based
[12] = molecular target: T3, mu opioid receptor subtype OPRM1 (Homo sapiens, UniProt P35372); assay: cell-based
MOR [13] = molecular target: T1, MOR; type: cell-based; remark: listed apart in the source
[14] = molecular target: T3, mu opioid receptor subtype OPRM1; assay: β-arrestin recruitment assay, antagonist format; type: cell-based; details: Table 18
Method: Beta-Arrestin Pathway: The PathHunter β-arrestin assay monitors the activation of a GPCR in a homogenous, non-imaging assay format using a technology developed by DiscoveRx called Enzyme Fragment Complementation (EFC) with beta-galactosidase (β-Gal) as the functional reporter. […] EA is fused to β-Arrestin and ED is fused to the GPCR of interest. When the GPCR is activated and β-arrestin is recruited to the receptor, ED and EA complementation occurs, restoring β-gal activity, which is measured using chemiluminescent PathHunter Detection Reagents.
Similar results were obtained when agonist and antagonist activity were assayed using cAMP signaling as the readout.

[15] = molecular target: T3, mu opioid receptor subtype OPRM1
OPRM1 receptor = OPRM1 receptor (Homo sapiens, UniProt P35372)
[16] = molecular target: T4, PK-tagged delta opioid receptors (U20S-DOR1) (Homo sapiens, UniProt P41143); assay: β-arrestin recruitment in U20S PathHunter cells, PAM mode with EC20 DADLE; type: cell-based; details: EC20 (0.8 nM) DADLE; concentrations up to 25 μM
T4 construct: host or cells: U20S Path Hunter cells

[17] = molecular target: T5, PK-tagged kappa opioid receptors (U20S-KOR1) (Homo sapiens, UniProt P41145); assay: β-arrestin recruitment in U20S PathHunter cells, PAM mode with EC20 Dynorphin A; type: cell-based; details: EC20 (0.8 nM) Dynorphin A; concentrations up to 25 μM
T5 construct: host or cells: U20S Path Hunter cells

[18] = maximal response for β-arrestin recruitment
[19] = β-arrestin recruitment, read-out: β-arr. EC50
[20] = β-arrestin, EC20 EM-1 agonism of MOR
[21] = β-arrestin, EC20 EM-1 agonism of MOR, read-out: RC50 (the source's name)
[22] = RC50, cAMP, EC20 EM-1 agonism of MOR
[23] = cAMP EC50, adenylyl cyclase inhibition
[24] = maximal response for adenylyl cyclase inhibition

T1 sequence (P35372 whole entry): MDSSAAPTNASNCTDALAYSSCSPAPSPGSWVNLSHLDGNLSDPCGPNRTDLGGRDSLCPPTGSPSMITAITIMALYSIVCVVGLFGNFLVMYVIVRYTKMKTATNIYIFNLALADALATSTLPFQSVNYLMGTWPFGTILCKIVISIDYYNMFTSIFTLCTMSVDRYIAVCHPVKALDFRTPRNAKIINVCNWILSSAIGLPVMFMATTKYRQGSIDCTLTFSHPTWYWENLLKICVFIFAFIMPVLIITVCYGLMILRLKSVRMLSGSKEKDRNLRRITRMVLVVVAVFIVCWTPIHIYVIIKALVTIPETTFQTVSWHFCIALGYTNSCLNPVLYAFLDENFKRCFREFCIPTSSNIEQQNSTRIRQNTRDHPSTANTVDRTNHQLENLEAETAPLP
T2 sequence (P35372 whole entry, the tested form may be a part): as the sequence (P35372 whole entry) above
T3 sequence (P35372 whole entry): as above
Chain of OPRM1 receptor (P35372 whole entry): as above

Row | Structure (SMILES) | Max. Response (MOR [3]) | allosteric activity for β-arrestin recruitment (mu opioid receptor (MOR) [4]) | β-arr Max. Resp. (mu opioid receptor (MOR) [4]; [18]) | EC50 (mu opioid receptor (MOR) [4]; [19]) [nM] | Max. Response (mu opioid receptor (MOR) [4]; [20]) | EC50 (mu opioid receptor (MOR) [4]; [21]) [nM] | allosteric activity for cAMP signaling (mu opioid receptor (MOR) [5]) | EC50 (mu opioid receptor (MOR) [5]; [22]) [nM] | EC50 (mu opioid receptor (MOR) [5]; [23]) [nM] | Max. Response (mu opioid receptor (MOR) [5]; EC20 EM-1 agonism of MOR) | cAMP Max. Resp. (mu opioid receptor (MOR) [5]; [24]) | EC50 (MOR [6]) [nM] | Max. Response (MOR [6]) | EC50 (MOR [7]) [nM] | Max. Response (MOR [7]) | EC50 (MOR [8]) [nM] | Max. Response (MOR [8]) | Max. Response (MOR [9]) | EC50 (MOR [10]) [nM] | Max. Response (MOR [10]) | further results
1 | CN1CC[C@]23c4c5ccc(O)c4O[C@H]2[C@@H](O)C=C[C@H]3[C@H]1C5 [morphine, reference compound] |  |  |  |  |  |  |  |  |  |  |  |  |  |  |  |  |  |  |  |  | stomach weight (Sprague-Dawley rats [1]; 20 minutes after charcoal): increased; GI transit (Sprague-Dawley rats [1]; subcutaneous 1 hour before charcoal): significantly decreased; oxygen saturation / respiratory depression (Sprague-Dawley rats [2]): significant reduction in oxygen saturation
2 | Fc1ccc(Cl)cc1CN1CCCCC1c1cccc(C(F)(F)F)n1 (stereo not drawn) [compound 2] | 97 | high positive allosteric activity | F (F represents a maximal response of > 60%) | < 700 | 143 | 360 | high positive allosteric activity | 570 | < 700 | 81 | F (F represents a maximal response of > 60%) | 13600 | 126 | > 25000 | 26 | > 25000 | 5 | 83 | 9590 | 156 | signaling preference β-arrestin vs cAMP (mu opioid receptor (MOR) [4]; comparison of β-arrestin and cAMP assays): roughly equivalent signaling for β-arrestin and cAMP; β-arr. Max Resp. (mu opioid receptor (MOR) [4]; maximal response for β-arrestin recruitment, Table 3): 72; EC50 (mu opioid receptor (MOR) [4]; β-arrestin recruitment, Table 3, read-out: β-arr. EC50): 155 nM; EC50 (mu opioid receptor (MOR) [5]; cAMP EC50 (nM), adenylyl cyclase inhibition, Table 3): 170 nM; cAMP Max Resp. (mu opioid receptor (MOR) [5]; maximal response for adenylyl cyclase inhibition, Table 3): 85
3 | COc1ccc(C2CCCCN2S(=O)(=O)c2ccc(Cl)cc2)cc1Br (single isomer, unassigned) [compound 6] | 117 | moderate positive allosteric effect | F (F represents a maximal response of > 60%) | 700 to 2100 | 173 | 2520 | moderate positive allosteric effect | 500 | < 700 | 93 | F (F represents a maximal response of > 60%) | 4830 | 384 | 2960 | 93 | 320 | 90 | 91 | 8250 | 421 | shift in the potency of oxycodone (MOR [11]; adenylyl cyclase inhibition): concentration-dependent and saturable leftward shifts; factor of increase of the affinity (α) of oxycodone (MOR [11]; cAMP): 4; factor of increase of the efficacy (β) of oxycodone (MOR [11]; cAMP): 4; effective potency for PAM effect (MOR [11]; cAMP signal, oxycodone): 234 nM; EC50 [12]: > 25000 nM; factor of increase of the affinity (α) of oxycodone (MOR [13]; β-arrestin): 2; factor of increase of the efficacy (β) of oxycodone (MOR [13]; β-arrestin): 80; shift in the potency of oxycodone (MOR [13]; β-arrestin recruitment): concentration-dependent and saturable leftward shifts; IC50 [14]: > 25 µM
4 | COc1ccc2c3c1O[C@H]1C(=O)CC[C@@]4(O)[C@@H](C2)N(C)CC[C@]314 [oxycodone] |  |  |  |  |  |  |  |  |  |  |  |  |  |  |  |  |  |  |  |  | % Max. Resp., β-arrestin [15]: 102.03%; % Max. Resp., cAMP (OPRM1 receptor): 100.62%
5 | O=S(=O)(c1ccc(Cl)cc1)N1CCCCC1c1ccc(F)c(Br)c1 (racemic) [compound 60] |  |  | F (F represents a maximal response of > 60%) | < 700 |  |  |  |  |  |  | E (E represents a maximal response of 40-60%) |  |  |  |  |  |  |  |  |  | β-arrestin Max Response (mu opioid receptor (MOR) [4]; β-arrestin recruitment, activity switching by MOR PAMs): F (F represents a maximal response of >60%); EC50 (mu opioid receptor (MOR) [4]; β-arrestin recruitment, activity switching by MOR PAMs, read-out: β-arrestin EC50): > 2100 nM; cAMP Max Resp. (mu opioid receptor (MOR) [5]; adenylyl cyclase inhibition, activity switching by MOR PAMs): D (D represents a maximal response of < 40%); EC50 (mu opioid receptor (MOR) [5]; adenylyl cyclase inhibition, activity switching by MOR PAMs, read-out: cAMP EC50): > 2100 nM; EC50 (mu opioid receptor (MOR) [5]; adenylyl cyclase inhibition, read-out: cAMP EC50): < 700 nM; positive allosteric effect on DOR signaling [16]: no significant positive allosteric effect; positive allosteric effect on KOR signaling [17]: no significant positive allosteric effect
